Reference: patent US20220396569A1 (Carmot Therapeutics, Inc., priority 2021, published 2022)

These compounds were tested against T1, human GLP-1 receptor (Homo sapiens, UniProt P43220) (assay: GLP-1R cAMP Assay (HitHunter cAMP accumulation)). Conditions: cAMP accumulation, CHO cells stably overexpressing human GLP-1 receptor, 30 min treatment; read-out: EC50.
T1 construct: expressed in transfected cells
Assay type: cell-based
Protocol: cAMP accumulation was measured in Chinese hamster ovary (CHO) cells stably overexpressing the human GLP-1 receptor using the HitHunter cAMP Assay for Small Molecules Kit (Eurofins). Briefly, cells were grown in Ham's F12 Nutrient Mix with 10% FBS, and lifted with Cell Dissociation Buffer, Enzyme free, PBS based (ThermoFisher). Cells were pelleted, and resuspended in Hank's buffered saline solution with 10 mM HEPES, and 625 μM 3-isobutyl-1-methylxanthine. The anti-cAMP antibody reagent was then added to cells at a 1:2 ratio and 5 μL of mixture was seeded in 384-well small volume white assay plates, at 10,000 cells/well. Cells were then treated with 50 nL compound using an ECHO 550 acoustic dispenser (Labcyte) in a 20-point dose response format in triplicate for 30 min. Cells were then lysed, and detection reagents added according to the manufacturer's protocol. After overnight incubation, luminescence was measured using a Perkin Elmer Envision plate reader. Dose response curves were analyzed using GraphPad Prism 9.0. […]

T1 sequence (P43220 24-463): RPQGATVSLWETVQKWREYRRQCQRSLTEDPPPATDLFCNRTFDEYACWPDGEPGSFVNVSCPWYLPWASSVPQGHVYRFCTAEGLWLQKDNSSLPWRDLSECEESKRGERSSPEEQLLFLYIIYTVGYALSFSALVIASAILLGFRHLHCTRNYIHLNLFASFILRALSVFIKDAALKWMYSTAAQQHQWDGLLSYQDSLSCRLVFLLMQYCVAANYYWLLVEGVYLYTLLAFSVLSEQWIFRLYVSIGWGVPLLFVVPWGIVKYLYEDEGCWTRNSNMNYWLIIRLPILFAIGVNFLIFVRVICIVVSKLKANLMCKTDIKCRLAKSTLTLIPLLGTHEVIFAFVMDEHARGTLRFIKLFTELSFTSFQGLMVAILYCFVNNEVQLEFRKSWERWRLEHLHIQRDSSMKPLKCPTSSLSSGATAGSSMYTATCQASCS

How did the EC50 turn out when N#Cc1ccc(OCc2nc(N3CC[C@H](Cc4nc5ccc(C(=O)O)cc5n4C[C@@H]4CCO4)C3)ccc2F)c(F)c1 [Compound 530] was run?
The EC50 was under 50 nM.

With CCn1cncc1Cn1c(CN2CC[C@H](Oc3ccnc(COc4ccc(Cl)cc4Cl)c3)C2)nc2ccc(C(=O)O)cc21 [Example 244, (S)-2-((3-((2-((2,4-Dichlorophenoxy)methyl)pyridin-4-yl)oxy)pyrrolidin-1-yl)methyl)-1-((1-ethyl-1H-imidazol-5-yl)methyl)-1H-benzo[d]imidazole-6-carboxylic acid] as the compound, how does the EC50 read?
The EC50 was under 50 nM.

With N#Cc1ccc(OCc2ccc(F)c(C3CCN(Cc4nc5c(F)cc(C(=O)O)cc5n4C[C@@H]4CCO4)C3)n2)c(F)c1 (stereo partly drawn) [Compound 521, 2-[(3-{6-[(4-cyano-2-fluorophenoxy)methyl]-3-fluoropyridin-2-yl}pyrrolidin-1-yl)methyl]-4-fluoro-1-{[(2S)-oxetan-2-yl]methyl}-1H-1,3-benzodiazole-6-carboxylic acid] as the compound, how does the EC50 read?
Its EC50 is under 50 nM.

How did the EC50 turn out when O=C(O)c1cc(F)c2nc(CN3CC[C@H](c4cccc(COc5ccc(Cl)cc5F)n4)C3)n(C[C@@H]3CCO3)c2c1 [Compound 442, 2-{[(3S)-3-{6-[(4-chloro-2-fluorophenoxy)methyl]pyridin-2-yl}pyrrolidin-1-yl]methyl}-4-fluoro-1-{[(2S)-oxetan-2-yl]methyl}-1H-1,3-benzodiazole-6-carboxylic acid] was run?
Its EC50 is under 50 nM.

How did the EC50 turn out when CCn1cncc1Cn1c(CN2CCC(Cc3cccc4c3O[C@@](C)(c3ccc(Cl)cc3F)O4)CC2)nc2ccc(C(=O)O)cc21 (single isomer, unassigned) [Compound 223] was run?
Its EC50 is under 50 nM.

Which EC50 does the source give for N#Cc1ccc(OCc2cccc([C@@H]3CCN(Cc4nc5ccc(C(=O)O)cc5n4C[C@@H]4CCO4)C3)c2)c(F)c1 [Compound 414, 2-{[(3S)-3-{3-[(4-cyano-2-fluorophenoxy)methyl]phenyl}pyrrolidin-1-yl]methyl}-1-{[(2S)-oxetan-2-yl]methyl}-1H-1,3-benzodiazole-6-carboxylic acid] here?
The EC50 was under 50 nM.

How did the EC50 turn out when O=C(O)c1cc(F)c2nc(Cc3ccc(Oc4ccnc(COc5ccc(Cl)cc5F)c4)cc3F)n(C[C@@H]3CCO3)c2c1 [Example 459, (S)-2-(4-((2-((4-Chloro-2-fluorophenoxy)methyl)pyridin-4-yl)oxy)-2-fluorobenzyl)-4-fluoro-1-(oxetan-2-ylmethyl)-1H-benzo[d]imidazole-6-carboxylic acid] was run?
The EC50 was under 50 nM.

Which EC50 does the source give for CCn1cncc1Cn1c(Cc2ccc(Oc3cccc(COc4ccc(C#N)cc4F)n3)cc2F)nc2ccc(C(=O)O)cc21 [Compound 461, 2-{[4-({6-[(4-cyano-2-fluorophenoxy)methyl]pyridin-2-yl}oxy)-2-fluorophenyl]methyl}-1-[(1-ethyl-1H-imidazol-5-yl)methyl]-1H-1,3-benzodiazole-6-carboxylic acid] here?
Its EC50 is under 50 nM.

N#Cc1ccc(OCc2nc(C3=CCN(Cc4nc5c(F)cc(C(=O)O)cc5n4CC4(CF)CC4)C3)ccc2F)c(F)c1 [Compound 416, 2-[(3-{6-[(4-cyano-2-fluorophenoxy)methyl]-5-fluoropyridin-2-yl}-2,5-dihydro-1H-pyrrol-1-yl)methyl]-4-fluoro-1-{[1-(fluoromethyl)cyclopropyl]methyl)-1H-1,3-benzodiazole-6-carboxylic acid] was tested. Which EC50 did it give?
Its EC50 is under 50 nM.

O=C(O)c1cc(F)c2nc(CN3CC=C(c4nc(COc5ccc(Cl)cc5F)ccc4F)C3)n(C[C@@H]3CCO3)c2c1 [Compound 437, 2-[(3-{6-[(4-chloro-2-fluorophenoxy)methyl]-3-fluoropyridin-2-yl}-2,5-dihydro-1H-pyrrol-1-yl)methyl]-4-fluoro-1-{[(2S)-oxetan-2-yl]methyl}-1H-1,3-benzodiazole-6-carboxylic acid] was tested. Which EC50 did it give?
Its EC50 is under 50 nM.

For O=C(O)c1ccc2nc(CN3CC(Oc4cccc(COc5ccc(Cl)cc5Cl)c4)C3)n(Cc3cnco3)c2c1 [Compound 238, 2-[(3-{3-[(2,4-dichlorophenoxy)methyl]phenoxy}azetidin-1-yl)methyl]-1-[(1,3-oxazol-5-yl)methyl]-1H-1,3-benzodiazole-6-carboxylic acid], which EC50 is on record?
The EC50 was under 50 nM.

With N#Cc1ccc(OCc2nc(C3CCN(Cc4nc5ccc(C(=O)O)cc5n4C[C@@H]4CCO4)C3)ccc2F)c(F)c1 (stereo partly drawn) [Compound 410, 2-[(3-{6-[(4-cyano-2-fluorophenoxy)methyl]-5-fluoropyridin-2-yl}pyrrolidin-1-yl)methyl]-1-{[(2S)-oxetan-2-yl]methyl}-1H-1,3-benzodiazole-6-carboxylic acid] as the compound, how does the EC50 read?
Its EC50 is under 50 nM.

How did the EC50 turn out when O=C(O)c1ccc2nc(CN3CCC(c4ccc(F)c(COc5ccc(Cl)cc5F)n4)C3)n(C[C@@H]3CCO3)c2c1 (stereo partly drawn) [Compound 409, 2-[(3-{6-[(4-chloro-2-fluorophenoxy)methyl]-5-fluoropyridin-2-yl}pyrrolidin-1-yl)methyl]-1-{[(2S)-oxetan-2-yl]methyl}-1H-1,3-benzodiazole-6-carboxylic acid] was run?
Its EC50 is under 50 nM.

With N#Cc1cc(Cl)ccc1OCc1cc(OC2CN(Cc3nc4ccc(C(=O)O)cc4n3C[C@@H]3CCO3)C2)ccn1 [Example 193, (S)-2-((3-((2-((4-Chloro-2-cyanophenoxy)methyl)pyridin-4-yl)oxy)azetidin-1-yl)methyl)-1-(oxetan-2-ylmethyl)-1H-benzo[d]imidazole-6-carboxylic acid] as the compound, how does the EC50 read?
The EC50 was under 50 nM.

How did the EC50 turn out when N#CCC1(Cn2c(CN3CC=C(c4ccc(F)c(COc5ccc(C#N)cc5F)n4)C3)nc3ccc(C(=O)O)cc32)CC1 [Compound 422, 2-[(3-{6-[(4-cyano-2-fluorophenoxy)methyl]-5-fluoropyridin-2-yl}-2,5-dihydro-1H-pyrrol-1-yl)methyl]-1-{[l-(cyanomethyl)cyclopropyl]methyl}-1H-1,3-benzodiazole-6-carboxylic acid] was run?
The EC50 was under 50 nM.

O=C(O)c1ccc2nc(Cc3ccc(Oc4cccc(COc5ccc(Cl)cc5F)n4)cc3F)n(C[C@@H]3CCO3)c2c1 [Compound 464, 2-{[4-({6-[(4-chloro-2-fluorophenoxy)methyl]pyridin-2-yl}oxy)-2-fluorophenyl]methyl}-1-{[(2S)-oxetan-2-yl]methyl}-1H-1,3-benzodiazole-6-carboxylic acid] was tested. Which EC50 did it give?
The EC50 was under 50 nM.

How did the EC50 turn out when O=C(O)c1ccc2nc(CN3CC[C@@H](c4cccc(COc5ccc(Cl)cc5F)c4)C3)n(C[C@@H]3CCO3)c2c1 (single isomer, unassigned) [Example 411] was run?
The EC50 was under 50 nM.

For CCn1cncc1Cn1c(CN2CCC(c3cccc(Oc4ccccc4)c3)C2)nc2ccc(C(=O)O)cc21 (racemic) [Example 134, 1-((1-Ethyl-1H-imidazol-5-yl)methyl)-2-((3-(3-phenoxyphenyl)pyrrolidin-1-yl)methyl)-1H-benzo[d]imidazole-6-carboxylic acid], which EC50 is on record?
The EC50 was 50 to 500 nM.

How did the EC50 turn out when O=C(O)c1ccc2nc(CN3CCC(c4cc(COc5ccc(Cl)cc5F)ccc4F)C3)n(C[C@@H]3CCO3)c2c1 (stereo partly drawn) [Compound 419, 2-[(3-{5-[(4-chloro-2-fluorophenoxy)methyl]-2-fluorophenyl}pyrrolidin-1-yl)methyl]-1-{[(2S)-oxetan-2-yl]methyl}-1H-1,3-benzodiazole-6-carboxylic acid] was run?
The EC50 was under 50 nM.

Which EC50 does the source give for O=C(O)c1ccc2nc(CN3CC=C(c4cccc(COc5ccc(Cl)cc5Cl)n4)C3)n(C[C@@H]3CCO3)c2c1 [Example 384, (S)-2-((3-(6-((2,4-Dichlorophenoxy)methyl)pyridin-2-yl)-2,5-dihydro-1H-pyrrol-1-yl)methyl)-1-(oxetan-2-ylmethyl)-1H-benzo[d]imidazole-6-carboxylic acid] here?
Its EC50 is under 50 nM.

How did the EC50 turn out when N#Cc1ccc(OCc2nc(C34CC3CN(Cc3nc5ccc(C(=O)O)cc5n3C[C@@H]3CCO3)C4)ccc2F)c(Cl)c1 (stereo partly drawn) [Compound 524, 2-[(1-{6-[(2-chloro-4-cyanophenoxy)methyl]-5-fluoropyridin-2-yl}-3-azabicyclo[3.1.0]hexan-3-yl)methyl]-1-{[(2S)-oxetan-2-yl]methyl}-1H-1,3-benzodiazole-6-carboxylic acid] was run?
Its EC50 is under 50 nM.

Which EC50 does the source give for CCn1cncc1Cn1c(CN2CC[C@@H](Oc3ccnc(COc4ccc(Cl)cc4Cl)c3)C2)nc2ccc(C(=O)O)cc21 [Compound 245, 2-{[(3R)-3-({2-[(2,4-dichlorophenoxy)methyl]pyridin-4-yl}oxy)pyrrolidin-1-yl]methyl}-1-[(1-ethyl-1H-imidazol-5-yl)methyl]-1H-1,3-benzodiazole-6-carboxylic acid] here?
The EC50 was under 50 nM.

How did the EC50 turn out when N#Cc1ccc(OCc2cc([C@@H]3CCN(Cc4nc5c(F)cc(C(=O)O)cc5n4C[C@@H]4CCO4)C3)ccc2F)c(F)c1 [Compound 450, 2-{[(3S)-3-{3-[(4-cyano-2-fluorophenoxy)methyl]-4-fluorophenyl}pyrrolidin-1-yl]methyl}-4-fluoro-1-{[(2S)-oxetan-2-yl]methyl}-1H-1,3-benzodiazole-6-carboxylic acid] was run?
The EC50 was under 50 nM.

How did the EC50 turn out when CCn1cncc1Cn1c(CN2CC(Oc3cccc(COc4ccc(Cl)cc4C#N)c3)C2)nc2ccc(C(=O)O)cc21 [Compound 212, 2-[(3-{3-[(4-chloro-2-cyanophenoxy)methyl]phenoxy}azetidin-1-yl)methyl]-1-[(1-ethyl-1H-imidazol-5-yl)methyl]-1H-1,3-benzodiazole-6-carboxylic acid] was run?
Its EC50 is under 50 nM.

O=C(O)c1ccc2nc(CN3CC=C(c4cc(COc5ccc(Cl)cc5F)ccn4)C3)n(C[C@@H]3CCO3)c2c1 [Compound 393] was tested. Which EC50 did it give?
Its EC50 is 50 to 500 nM.

For N#Cc1ccc(OCc2cccc([C@H]3CCN(Cc4nc5ccc(C(=O)O)cc5n4C[C@@H]4CCO4)C3)c2)c(F)c1 [Compound 415, 2-{[(3R)-3-{3-[(4-cyano-2-fluorophenoxy)methyl]phenyl}pyrrolidin-1-yl]methyl}-1-{[(2S)-oxetan-2-yl]methyl}-1H-1,3-benzodiazole-6-carboxylic acid], which EC50 is on record?
The EC50 was 50 to 500 nM.
